Results on four compounds are retold here after publication PMC10004634 (PLOS ONE, 2023).

Assay in all cases: biochemical
Holding throughout (design): KINOMEscan scanMAX competition binding, DNA-tagged kinases, qPCR read-out, percent control at 300 nM
(In qPCR the cycle at which signal appears reflects the starting amount.)

In one assay the target is EGFR(G719S) (Homo sapiens, UniProt P00533, G719S). Particulars: read-out: Percent control / Tirabrutinib.
For assay [1], the target named is T1, ABL1(Q252H)-nonphosphorylated (Homo sapiens, UniProt P00519, Q252H).
T1 construct: nonphosphorylated
Particulars: read-out: Percent control / Acalabrutinib.

Another assay concerns the target T2, ASK1 (Homo sapiens, UniProt Q99683).
T2 construct: gene MAP3K5
Particulars: read-out: Percent control / Acalabrutinib.

The target of the next assay is CAMK2G (Homo sapiens, UniProt Q13555). To be noted: read-out: Percent control / Acalabrutinib.
The target of the next assay is CDK3 (Homo sapiens, UniProt Q00526). To be noted: read-out: Percent control / Acalabrutinib.
The target in a further assay is MAP3K3 (Homo sapiens, UniProt Q99759). To be noted: read-out: Percent control / Acalabrutinib.
For a further assay, the target named is PIK3CA(H1047Y) (Homo sapiens, UniProt P42336, H1047Y). Particulars: read-out: Percent control / Acalabrutinib.
The target in a further assay is PIK3CG (Homo sapiens, UniProt P48736). Particulars: read-out: Percent control / Acalabrutinib.
A further assay deals with PRKD3 (Homo sapiens, UniProt O94806). To be noted: read-out: Percent control / Acalabrutinib.
For the next assay, the target named is T3, YANK3 (Homo sapiens, UniProt Q86UX6).
T3 construct: gene STK32C
Particulars: read-out: Percent control / Acalabrutinib.

Another assay concerns the target T4, p38-gamma (Homo sapiens, UniProt P53778).
T4 construct: gene MAPK12
To be noted: read-out: Percent control / Acalabrutinib.

The target of a further assay is MARK3 (Homo sapiens, UniProt P27448). To be noted: read-out: Percent control / Ibrutinib.
The next assay concerns the target AKT1 (Homo sapiens, UniProt P31749). Particulars: read-out: Percent control / Zanubrutinib.
A further assay deals with EPHA5 (Homo sapiens, UniProt P54756). Particulars: read-out: Percent control / Zanubrutinib.
The target of another assay is T5, IKK-alpha (Homo sapiens, UniProt O15111).
T5 construct: gene CHUK
Particulars: read-out: Percent control / Zanubrutinib.

Another assay has as its target LRRK2 (Homo sapiens, UniProt Q5S007). Particulars: read-out: Percent control / Zanubrutinib.
Another assay addresses LRRK2(G2019S) (Homo sapiens, UniProt Q5S007, G2019S). To be noted: read-out: Percent control / Zanubrutinib.
Another assay concerns the target T6, MEK6 (Homo sapiens, UniProt P52564).
T6 construct: gene MAP2K6
Particulars: read-out: Percent control / Zanubrutinib.

A further assay deals with MTOR (Homo sapiens, UniProt P42345). Particulars: read-out: Percent control / Zanubrutinib.
In the next assay the target is PLK2 (Homo sapiens, UniProt Q9NYY3). Particulars: read-out: Percent control / Zanubrutinib.
The target in a further assay is T7, S6K1 (Homo sapiens, UniProt P23443).
T7 construct: gene RPS6KB1
To be noted: read-out: Percent control / Zanubrutinib.

For another assay, the target named is T8, SIK (Homo sapiens, UniProt P57059).
T8 construct: gene SIK1
To be noted: read-out: Percent control / Zanubrutinib.

The next assay concerns the target VRK2 (Homo sapiens, UniProt Q86Y07). Particulars: read-out: Percent control / Zanubrutinib.

Sequence of VRK2 (Q86Y07 whole entry): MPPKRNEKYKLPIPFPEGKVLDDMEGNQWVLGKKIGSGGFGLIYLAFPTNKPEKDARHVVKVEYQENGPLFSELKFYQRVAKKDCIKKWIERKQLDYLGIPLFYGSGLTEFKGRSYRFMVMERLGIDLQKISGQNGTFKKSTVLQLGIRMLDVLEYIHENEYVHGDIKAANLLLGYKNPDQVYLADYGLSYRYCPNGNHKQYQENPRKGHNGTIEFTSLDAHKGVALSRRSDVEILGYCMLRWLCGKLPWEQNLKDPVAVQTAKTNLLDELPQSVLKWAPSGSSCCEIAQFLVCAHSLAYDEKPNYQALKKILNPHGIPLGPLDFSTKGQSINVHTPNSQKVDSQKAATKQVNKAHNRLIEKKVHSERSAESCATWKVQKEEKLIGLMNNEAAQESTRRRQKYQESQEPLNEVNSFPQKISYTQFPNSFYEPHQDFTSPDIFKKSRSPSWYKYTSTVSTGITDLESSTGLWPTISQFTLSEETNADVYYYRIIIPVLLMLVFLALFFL
T4 sequence (P53778 whole entry): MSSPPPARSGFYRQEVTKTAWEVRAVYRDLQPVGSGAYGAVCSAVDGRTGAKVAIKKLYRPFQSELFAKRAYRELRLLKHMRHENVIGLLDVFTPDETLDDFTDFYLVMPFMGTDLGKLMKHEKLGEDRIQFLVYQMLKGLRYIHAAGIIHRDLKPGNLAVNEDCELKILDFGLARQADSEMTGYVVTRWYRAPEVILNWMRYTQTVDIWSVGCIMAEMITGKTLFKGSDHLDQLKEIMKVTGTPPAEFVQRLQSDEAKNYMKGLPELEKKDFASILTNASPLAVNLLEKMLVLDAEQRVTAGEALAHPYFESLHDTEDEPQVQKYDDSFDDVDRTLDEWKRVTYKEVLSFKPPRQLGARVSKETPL
T8 sequence (P57059 whole entry): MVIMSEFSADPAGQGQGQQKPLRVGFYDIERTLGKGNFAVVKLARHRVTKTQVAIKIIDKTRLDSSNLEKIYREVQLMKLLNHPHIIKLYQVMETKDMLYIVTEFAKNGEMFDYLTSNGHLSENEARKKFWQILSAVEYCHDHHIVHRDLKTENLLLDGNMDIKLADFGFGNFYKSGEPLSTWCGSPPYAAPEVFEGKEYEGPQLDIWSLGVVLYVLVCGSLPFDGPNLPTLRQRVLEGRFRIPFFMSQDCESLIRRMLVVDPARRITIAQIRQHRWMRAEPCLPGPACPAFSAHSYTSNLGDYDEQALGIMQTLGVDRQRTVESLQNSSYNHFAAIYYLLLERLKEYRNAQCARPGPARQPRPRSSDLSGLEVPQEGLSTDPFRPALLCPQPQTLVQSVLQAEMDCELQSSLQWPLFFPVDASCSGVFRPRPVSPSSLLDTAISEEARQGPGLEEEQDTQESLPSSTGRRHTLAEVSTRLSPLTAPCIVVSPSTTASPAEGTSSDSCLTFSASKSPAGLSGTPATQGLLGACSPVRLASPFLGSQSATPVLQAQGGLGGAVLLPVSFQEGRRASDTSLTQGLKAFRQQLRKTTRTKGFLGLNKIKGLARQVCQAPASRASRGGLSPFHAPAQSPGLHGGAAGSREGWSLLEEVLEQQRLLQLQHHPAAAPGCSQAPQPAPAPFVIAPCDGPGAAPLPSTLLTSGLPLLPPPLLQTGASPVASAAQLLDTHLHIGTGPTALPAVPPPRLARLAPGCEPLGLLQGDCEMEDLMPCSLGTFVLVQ
Sequence of CDK3 (Q00526 whole entry): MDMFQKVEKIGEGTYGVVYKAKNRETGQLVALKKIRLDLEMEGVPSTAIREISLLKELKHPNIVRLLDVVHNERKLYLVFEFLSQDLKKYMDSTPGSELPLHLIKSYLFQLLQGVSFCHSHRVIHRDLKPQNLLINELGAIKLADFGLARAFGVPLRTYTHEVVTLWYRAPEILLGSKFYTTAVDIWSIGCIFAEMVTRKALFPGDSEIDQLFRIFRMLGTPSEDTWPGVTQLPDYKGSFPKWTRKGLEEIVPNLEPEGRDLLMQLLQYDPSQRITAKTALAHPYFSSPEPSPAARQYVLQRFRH
Sequence of MAP3K3 (Q99759 whole entry): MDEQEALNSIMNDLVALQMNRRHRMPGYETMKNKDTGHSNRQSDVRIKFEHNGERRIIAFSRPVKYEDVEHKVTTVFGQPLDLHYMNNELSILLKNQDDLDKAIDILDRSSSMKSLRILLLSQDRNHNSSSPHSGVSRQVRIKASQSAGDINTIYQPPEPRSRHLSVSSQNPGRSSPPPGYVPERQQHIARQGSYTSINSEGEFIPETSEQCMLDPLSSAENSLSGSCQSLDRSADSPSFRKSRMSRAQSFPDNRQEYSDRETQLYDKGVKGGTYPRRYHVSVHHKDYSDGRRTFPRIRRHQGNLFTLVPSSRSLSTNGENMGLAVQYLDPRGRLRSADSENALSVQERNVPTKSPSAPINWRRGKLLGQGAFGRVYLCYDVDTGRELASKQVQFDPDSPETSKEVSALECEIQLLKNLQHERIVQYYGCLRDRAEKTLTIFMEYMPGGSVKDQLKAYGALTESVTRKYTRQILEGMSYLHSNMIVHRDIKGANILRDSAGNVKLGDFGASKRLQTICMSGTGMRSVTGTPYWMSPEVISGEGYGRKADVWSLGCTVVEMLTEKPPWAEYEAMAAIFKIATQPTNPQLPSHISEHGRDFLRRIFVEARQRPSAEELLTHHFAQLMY
Sequence of PRKD3 (O94806 whole entry): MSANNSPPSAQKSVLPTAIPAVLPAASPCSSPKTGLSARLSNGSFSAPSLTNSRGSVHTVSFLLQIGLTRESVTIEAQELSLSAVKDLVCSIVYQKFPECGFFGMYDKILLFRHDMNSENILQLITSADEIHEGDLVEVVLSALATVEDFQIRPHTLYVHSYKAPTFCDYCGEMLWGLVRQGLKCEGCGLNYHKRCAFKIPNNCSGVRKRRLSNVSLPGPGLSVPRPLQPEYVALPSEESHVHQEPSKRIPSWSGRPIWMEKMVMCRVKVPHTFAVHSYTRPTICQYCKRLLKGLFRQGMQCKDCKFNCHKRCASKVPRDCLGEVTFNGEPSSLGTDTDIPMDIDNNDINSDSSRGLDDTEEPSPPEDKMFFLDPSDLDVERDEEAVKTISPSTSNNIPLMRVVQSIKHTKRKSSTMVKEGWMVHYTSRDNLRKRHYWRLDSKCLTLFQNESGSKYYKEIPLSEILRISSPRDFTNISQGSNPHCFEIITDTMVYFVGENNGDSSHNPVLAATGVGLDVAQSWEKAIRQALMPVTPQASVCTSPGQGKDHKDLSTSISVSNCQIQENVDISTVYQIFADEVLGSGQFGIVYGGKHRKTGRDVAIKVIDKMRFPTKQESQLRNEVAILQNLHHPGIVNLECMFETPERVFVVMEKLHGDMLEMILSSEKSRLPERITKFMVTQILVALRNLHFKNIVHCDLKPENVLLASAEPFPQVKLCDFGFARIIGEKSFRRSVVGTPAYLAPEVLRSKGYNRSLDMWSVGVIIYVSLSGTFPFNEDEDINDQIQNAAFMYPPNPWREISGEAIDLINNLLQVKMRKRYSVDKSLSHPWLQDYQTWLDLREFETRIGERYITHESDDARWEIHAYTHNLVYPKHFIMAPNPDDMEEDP
T3 sequence (Q86UX6 whole entry): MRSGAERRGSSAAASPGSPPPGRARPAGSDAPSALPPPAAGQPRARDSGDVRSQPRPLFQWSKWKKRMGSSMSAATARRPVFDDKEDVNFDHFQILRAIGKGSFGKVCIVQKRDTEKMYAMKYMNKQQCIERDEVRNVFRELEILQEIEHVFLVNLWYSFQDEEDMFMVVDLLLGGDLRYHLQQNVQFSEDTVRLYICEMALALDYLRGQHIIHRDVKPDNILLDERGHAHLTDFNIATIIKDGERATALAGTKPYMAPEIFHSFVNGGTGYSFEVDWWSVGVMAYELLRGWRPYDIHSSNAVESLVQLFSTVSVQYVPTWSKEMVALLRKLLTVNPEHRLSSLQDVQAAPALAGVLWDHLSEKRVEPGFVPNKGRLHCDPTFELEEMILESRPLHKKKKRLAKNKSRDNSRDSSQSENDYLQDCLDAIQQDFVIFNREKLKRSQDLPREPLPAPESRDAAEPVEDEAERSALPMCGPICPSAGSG
Sequence of PIK3CA(H1047Y) (P42336 whole entry H1047Y): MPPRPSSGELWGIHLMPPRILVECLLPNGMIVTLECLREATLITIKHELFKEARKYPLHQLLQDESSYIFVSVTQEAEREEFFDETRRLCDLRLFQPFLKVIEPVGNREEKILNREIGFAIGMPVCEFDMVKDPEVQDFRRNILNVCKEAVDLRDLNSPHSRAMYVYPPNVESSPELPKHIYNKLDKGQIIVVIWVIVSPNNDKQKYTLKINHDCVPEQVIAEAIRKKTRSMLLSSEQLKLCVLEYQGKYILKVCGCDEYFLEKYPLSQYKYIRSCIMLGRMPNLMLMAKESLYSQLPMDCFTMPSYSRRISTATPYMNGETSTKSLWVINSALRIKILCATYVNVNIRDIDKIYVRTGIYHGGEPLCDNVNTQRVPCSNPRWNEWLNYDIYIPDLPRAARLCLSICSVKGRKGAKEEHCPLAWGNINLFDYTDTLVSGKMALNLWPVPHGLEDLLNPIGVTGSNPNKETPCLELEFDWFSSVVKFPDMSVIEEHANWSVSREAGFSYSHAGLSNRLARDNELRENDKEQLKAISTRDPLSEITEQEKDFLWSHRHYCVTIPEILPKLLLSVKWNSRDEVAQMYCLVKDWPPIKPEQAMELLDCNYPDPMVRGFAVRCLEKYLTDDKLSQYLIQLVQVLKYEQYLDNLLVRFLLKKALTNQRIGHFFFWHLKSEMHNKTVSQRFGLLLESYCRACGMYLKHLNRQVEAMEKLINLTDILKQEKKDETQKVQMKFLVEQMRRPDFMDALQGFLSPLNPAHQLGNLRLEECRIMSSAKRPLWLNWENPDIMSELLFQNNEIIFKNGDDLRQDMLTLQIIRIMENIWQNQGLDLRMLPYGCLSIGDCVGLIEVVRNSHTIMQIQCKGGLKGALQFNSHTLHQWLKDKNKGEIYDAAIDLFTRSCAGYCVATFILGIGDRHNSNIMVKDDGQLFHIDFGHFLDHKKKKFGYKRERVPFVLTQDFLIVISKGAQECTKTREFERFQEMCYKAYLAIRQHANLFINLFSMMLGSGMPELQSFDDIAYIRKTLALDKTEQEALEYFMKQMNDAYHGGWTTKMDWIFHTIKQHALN

Regarding `CC#CC(=O)N1CC[C@@H](n2c(=O)n(-c3ccc(Oc4ccccc4)cc3)c3c(N)ncnc32)C1` [Tirabrutinib], the remaining binding at 0.3 µM on EGFR(G719S) is 85%.
`CC#CC(=O)N1CCC[C@H]1c1nc(-c2ccc(C(=O)Nc3ccccn3)cc2)c2c(N)nccn12` [Acalabrutinib]: the remaining binding at 0.3 µM in [1] is 84%; at ASK1 it was 93%; on CAMK2G, 95%; on CDK3, 88%; on MAP3K3, 86%; at PIK3CA(H1047Y), 70%. In addition, the remaining binding at 0.3 µM at PIK3CG stood at 99%; at PRKD3 it was 81%; on YANK3, 84%; on p38-gamma, 75%.
On to `C=CC(=O)N1CCC[C@@H](n2nc(-c3ccc(Oc4ccccc4)cc3)c3c(N)ncnc32)C1` [Ibrutinib], for which, at MARK3, the remaining binding at 0.3 µM amounted to 99%.
For the compound `C=CC(=O)N1CCC([C@@H]2CCNc3c(C(N)=O)c(-c4ccc(Oc5ccccc5)cc4)nn32)CC1` [Zanubrutinib], the remaining binding at 0.3 µM was 100% at AKT1; 97% at EPHA5; 84% on IKK-alpha; 64% on LRRK2; 47% on LRRK2(G2019S); 75% at MEK6. Besides, the remaining binding at 0.3 µM on MTOR was determined as 88%; at PLK2, 100%; on S6K1, 88%; at SIK it was 100%; at VRK2, 97%.
